Measurements reported in patent US12157717B2, “Compounds for the treatment of bovine or swine respiratory disease” (Intervet Inc., priority 2018, dated 2024).
Converted amounts (≈) assume the structure as drawn.

Tests used:
Assay type in all cases: cell-based
[1] = system: Mannheimia haemolytica MH 6374 (ATCC 33396); assay: MIC, broth-microdilution (CLSI), strain MH 6374; settings: Mannheimia haemolytica ATCC 33396, reference strain
Protocol: (§1) The Minimum inhibitory concentrations (MIC) of compounds according to the invention for a number of veterinary bacterial pathogens were determined by the broth-microdilution method according to CLSI document VETO 1-A4.
(§2) Microdilution trays containing a doubling dilution series of the test compound were used for the tests. The MIC results were interpreted according to the CLSI documents VET01-S3. The lowest concentration of compound at which no visible growth (i.e. no turbidity) detected by the unaided eye was recorded as the MIC.

[2] = system: Pasteurella multocida PM 12080 (IV102277-0093); assay: MIC, broth-microdilution (CLSI), strain PM 12080; settings: Pasteurella multocida IV102277-0093, BRD field isolate
Protocol: as §1, §2

[3] = system: Pasteurella multocida PM 6267 (P 2225 (L386)); assay: MIC, broth-microdilution (CLSI), strain PM 6267; settings: Pasteurella multocida P 2225 (L386), reference strain (mouse infection strain)
Protocol: as §1, §2

[4] = system: Mannheimia haemolytica MH 13065 (XB0446-6003.9); assay: MIC, broth-microdilution (CLSI), strain MH 13065; settings: Mannheimia haemolytica XB0446-6003.9, BRD field isolate
Protocol: as §1, §2

[5] = system: Mannheimia haemolytica MH 10720 (154); assay: MIC, broth-microdilution (CLSI), strain MH 10720; settings: Mannheimia haemolytica 154, BRD field isolate
Protocol: as §1, §2

[6] = system: Pasteurella multocida PM 10775 (080130003051); assay: MIC, broth-microdilution (CLSI), strain PM 10775; settings: Pasteurella multocida 080130003051, BRD field isolate
Protocol: as §1, §2

[7] = system: Mannheimia haemolytica MH 12587 (1071), macrolide-resistance: erm+, E+; assay: MIC, broth-microdilution (CLSI), strain MH 12587; settings: Mannheimia haemolytica 1071, BRD field isolate
Protocol: as §1, §2

[8] = system: Pasteurella multocida PM 6391 (ATCC 43137); assay: MIC, broth-microdilution (CLSI), strain PM 6391; settings: Pasteurella multocida ATCC 43137, reference strain
Protocol: as §1, §2

[9] = system: Mannheimia haemolytica MH 13093 (XB0472-6014.1); assay: MIC, broth-microdilution (CLSI), strain MH 13093; settings: Mannheimia haemolytica XB0472-6014.1, BRD field isolate
Protocol: as §1, §2

[10] = system: Mannheimia haemolytica MH 6357 (M7/2); assay: MIC, broth-microdilution (CLSI), strain MH 6357; settings: Mannheimia haemolytica M7/2, reference strain (cattle infection strain)
Protocol: as §1, §2

Row | Compound | MIC MH 6374 [1] [µM] | MIC PM 12080 [2] [µM] | MIC PM 6267 [3] [µM] | MIC MH 13065 [4] [µM] | MIC MH 10720 [5] [µM] | MIC PM 10775 [6] [µM] | MIC MH 12587 [7] [µM] | MIC PM 6391 [8] [µM] | MIC MH 13093 [9] [µM] | MIC MH 6357 [10] [µM]
1 | CNC(=O)C(NC(=O)c1ccc(C#Cc2ccc(CNCc3nccs3)cc2)cc1)C(=O)NO (centres unmarked) [Compound 18] | 0.4 (≈ 0.191 µg/mL) | ≤0.1 | ≤0.1 | 0.4 (≈ 0.191 µg/mL) | 0.2 (≈ 0.0955 µg/mL) | ≤0.1 | 0.8 (≈ 0.382 µg/mL) | ≤0.1 | 0.4 (≈ 0.191 µg/mL) | 0.4 (≈ 0.191 µg/mL)
2 | CNC(=O)C(NC(=O)c1ccc(C#Cc2ccc(CNC3CCCC3)cc2)cc1)C(=O)NO (centres unmarked) [Compound 9] | 25 (≈ 11.2 µg/mL) | 0.4 (≈ 0.179 µg/mL) | 0.4 (≈ 0.179 µg/mL) | 12.5 (≈ 5.61 µg/mL) | 3.1 (≈ 1.39 µg/mL) | 0.2 (≈ 0.0897 µg/mL) | 25 (≈ 11.2 µg/mL) | 0.4 (≈ 0.179 µg/mL) | 12.5 (≈ 5.61 µg/mL) | 6.3 (≈ 2.83 µg/mL)
3 | CNC(=O)C(NC(=O)c1ccc(C#Cc2ccc(CNCc3ccnc(Cl)c3)cc2)cc1)C(=O)NO (centres unmarked) [Compound 12] | 0.4 (≈ 0.202 µg/mL) | ≤0.1 | ≤0.1 | 0.4 (≈ 0.202 µg/mL) | ≤0.1 | ≤0.1 | 0.8 (≈ 0.405 µg/mL) | ≤0.1 | 0.4 (≈ 0.202 µg/mL) | 0.2 (≈ 0.101 µg/mL)
4 | CNC(=O)C(NC(=O)c1ccc(C#Cc2ccc(CNCc3ccccc3)cc2)cc1)C(=O)NO (centres unmarked) [Compound 5] | 0.8 (≈ 0.376 µg/mL) | ≤0.1 | ≤0.1 | 0.8 (≈ 0.376 µg/mL) | ≤0.1 | ≤0.1 | 1.6 (≈ 0.753 µg/mL) | 0.2 (≈ 0.0941 µg/mL) | 1.6 (≈ 0.753 µg/mL) | 0.4 (≈ 0.188 µg/mL)
5 | CCCNCc1ccc(C#Cc2ccc(C(=O)NC(C(=O)NC)C(=O)NO)cc2)cc1 (centres unmarked) [Compound 10] | 6.3 (≈ 2.66 µg/mL) | 0.8 (≈ 0.338 µg/mL) | 0.8 (≈ 0.338 µg/mL) | 3.1 (≈ 1.31 µg/mL) | 1.6 (≈ 0.676 µg/mL) | 0.2 (≈ 0.0845 µg/mL) | 12.5 (≈ 5.28 µg/mL) | 0.8 (≈ 0.338 µg/mL) | 1.6 (≈ 0.676 µg/mL) | 3.1 (≈ 1.31 µg/mL)
6 | CNC(=O)C(C(=O)NO)N(C)C(=O)c1ccc(C#Cc2ccc(CN3CCOCC3)cc2)cc1 (centres unmarked) [Compound 22] | 1.6 (≈ 0.743 µg/mL) | 0.4 (≈ 0.186 µg/mL) | ≤0.1 | 3.1 (≈ 1.44 µg/mL) | 0.4 (≈ 0.186 µg/mL) | ≤0.1 | 6.3 (≈ 2.93 µg/mL) | 0.4 (≈ 0.186 µg/mL) | 3.1 (≈ 1.44 µg/mL) | 1.6 (≈ 0.743 µg/mL)
7 | CNC(=O)C(C(=O)NO)N(C)C(=O)c1ccc(C#Cc2ccc(CNCc3ccc(OC)cc3)cc2)cc1 (centres unmarked) [Compound 24] | 1.6 (≈ 0.823 µg/mL) | 1.6 (≈ 0.823 µg/mL) | 0.4 (≈ 0.206 µg/mL) | 3.1 (≈ 1.6 µg/mL) | 0.8 (≈ 0.412 µg/mL) | ≤0.1 | 12.5 (≈ 6.43 µg/mL) | 1.6 (≈ 0.823 µg/mL) | 6.3 (≈ 3.24 µg/mL) | 1.6 (≈ 0.823 µg/mL)
8 | CNC(=O)C(NC(=O)c1ccc(C#Cc2ccc(CNCc3cccs3)cc2)cc1)C(=O)NO (centres unmarked) [Compound 15] | 0.2 (≈ 0.0953 µg/mL) | ≤0.1 | ≤0.1 | 0.2 (≈ 0.0953 µg/mL) | ≤0.1 | ≤0.1 | 0.8 (≈ 0.381 µg/mL) | ≤0.1 | 0.2 (≈ 0.0953 µg/mL) | 0.2 (≈ 0.0953 µg/mL)
9 | CCCNCc1ccc(C#Cc2ccc(C(=O)N(C)C(C(=O)NC)C(=O)NO)cc2)cc1 (centres unmarked) [Compound 27] | 6.3 (≈ 2.75 µg/mL) | 1.6 (≈ 0.698 µg/mL) | 0.2 (≈ 0.0873 µg/mL) | 6.3 (≈ 2.75 µg/mL) | 1.6 (≈ 0.698 µg/mL) | 0.4 (≈ 0.175 µg/mL) | 12.5 (≈ 5.46 µg/mL) | 3.1 (≈ 1.35 µg/mL) | 12.5 (≈ 5.46 µg/mL) | 6.3 (≈ 2.75 µg/mL)
10 | CNC(=O)C(NC(=O)c1ccc(C#Cc2ccc(CN3CCCC3)cc2)cc1)C(=O)NO (centres unmarked) [Compound 7] | 12.5 (≈ 5.43 µg/mL) | 0.8 (≈ 0.348 µg/mL) | ≤0.1 | 12.5 (≈ 5.43 µg/mL) | 1.6 (≈ 0.695 µg/mL) | 0.2 (≈ 0.0869 µg/mL) | 12.5 (≈ 5.43 µg/mL) | 0.4 (≈ 0.174 µg/mL) | 6.3 (≈ 2.74 µg/mL) | 3.1 (≈ 1.35 µg/mL)
11 | CNC(=O)C(NC(=O)c1ccc(C#Cc2ccc(CNCc3ccc(C)cc3)cc2)cc1)C(=O)NO (centres unmarked) [Compound 16] | 0.8 (≈ 0.388 µg/mL) | 0.2 (≈ 0.0969 µg/mL) | ≤0.1 | 0.8 (≈ 0.388 µg/mL) | 0.2 (≈ 0.0969 µg/mL) | ≤0.1 | 1.6 (≈ 0.775 µg/mL) | 0.4 (≈ 0.194 µg/mL) | 1.6 (≈ 0.775 µg/mL) | 0.4 (≈ 0.194 µg/mL)
12 | CNC(=O)C(NC(=O)c1ccc(C#Cc2ccc(CN3CCOCC3)cc2)cc1)C(=O)NO (centres unmarked) [Compound 4] | 3.1 (≈ 1.4 µg/mL) | ≤0.1 | ≤0.1 | 1.6 (≈ 0.721 µg/mL) | 0.4 (≈ 0.18 µg/mL) | ≤0.1 | 6.3 (≈ 2.84 µg/mL) | ≤0.1 | 1.6 (≈ 0.721 µg/mL) | 1.6 (≈ 0.721 µg/mL)
13 | CNC(=O)C(NC(=O)c1ccc(C#Cc2ccc(CNCc3cccnc3)cc2)cc1)C(=O)NO (centres unmarked) [Compound 11] | 0.8 (≈ 0.377 µg/mL) | ≤0.1 | ≤0.1 | 0.8 (≈ 0.377 µg/mL) | 0.2 (≈ 0.0943 µg/mL) | ≤0.1 | 0.8 (≈ 0.377 µg/mL) | 0.2 (≈ 0.0943 µg/mL) | 1.6 (≈ 0.754 µg/mL) | 0.4 (≈ 0.189 µg/mL)
14 | CNC(=O)C(NC(=O)c1ccc(C#Cc2ccc(CNCCOC)cc2)cc1)C(=O)NO (centres unmarked) [Compound 3] | 3.1 (≈ 1.36 µg/mL) | 0.4 (≈ 0.175 µg/mL) | 0.2 (≈ 0.0877 µg/mL) | 1.6 (≈ 0.702 µg/mL) | 0.8 (≈ 0.351 µg/mL) | ≤0.1 | 6.3 (≈ 2.76 µg/mL) | 0.4 (≈ 0.175 µg/mL) | 1.6 (≈ 0.702 µg/mL) | 1.6 (≈ 0.702 µg/mL)
15 | CNC(=O)C(NC(=O)c1ccc(C#Cc2ccc(CNCc3ccco3)cc2)cc1)C(=O)NO (centres unmarked) [Compound 14] | 0.4 (≈ 0.184 µg/mL) | ≤0.1 | ≤0.1 | 0.4 (≈ 0.184 µg/mL) | 0.2 (≈ 0.0921 µg/mL) | ≤0.1 | 0.4 (≈ 0.184 µg/mL) | ≤0.1 | 0.8 (≈ 0.368 µg/mL) | 0.4 (≈ 0.184 µg/mL)
16 | CNC(=O)C(C(=O)NO)N(C)C(=O)c1ccc(C#Cc2ccc(CN3CCCC3)cc2)cc1 (centres unmarked) [Compound 25] | 6.3 (≈ 2.83 µg/mL) | 1.6 (≈ 0.718 µg/mL) | 1.6 (≈ 0.718 µg/mL) | 6.3 (≈ 2.83 µg/mL) | 3.1 (≈ 1.39 µg/mL) | 0.4 (≈ 0.179 µg/mL) | 12.5 (≈ 5.61 µg/mL) | 3.1 (≈ 1.39 µg/mL) | 12.5 (≈ 5.61 µg/mL) | 6.3 (≈ 2.83 µg/mL)
17 | CNC(=O)C(C(=O)NO)N(C)C(=O)c1ccc(C#Cc2ccc(CNCc3ccccn3)cc2)cc1 (centres unmarked) [Compound 28] | 3.1 (≈ 1.51 µg/mL) | 1.6 (≈ 0.777 µg/mL) | ≤0.1 | 3.1 (≈ 1.51 µg/mL) | 1.6 (≈ 0.777 µg/mL) | 0.2 (≈ 0.0971 µg/mL) | 12.5 (≈ 6.07 µg/mL) | 3.1 (≈ 1.51 µg/mL) | 6.3 (≈ 3.06 µg/mL) | 6.3 (≈ 3.06 µg/mL)
18 | CNC(=O)C(NC(=O)c1ccc(C#Cc2ccc(CNCc3ccccn3)cc2)cc1)C(=O)NO (centres unmarked) [Compound 13] | 0.8 (≈ 0.377 µg/mL) | ≤0.1 | ≤0.1 | 1.6 (≈ 0.754 µg/mL) | 0.2 (≈ 0.0943 µg/mL) | ≤0.1 | 1.6 (≈ 0.754 µg/mL) | 0.2 (≈ 0.0943 µg/mL) | 0.8 (≈ 0.377 µg/mL) | 0.8 (≈ 0.377 µg/mL)
19 | CNC(=O)C(NC(=O)c1ccc(C#Cc2ccc(CNCc3ccc(OC)cc3)cc2)cc1)C(=O)NO (centres unmarked) [Compound 6] | 0.8 (≈ 0.4 µg/mL) | ≤0.1 | ≤0.1 | 0.8 (≈ 0.4 µg/mL) | ≤0.1 | ≤0.1 | 1.6 (≈ 0.801 µg/mL) | 0.2 (≈ 0.1 µg/mL) | 1.6 (≈ 0.801 µg/mL) | 0.4 (≈ 0.2 µg/mL)
20 | CNC(=O)C(NC(=O)c1ccc(C#Cc2ccc(CNCC(F)(F)F)cc2)cc1)C(=O)NO (centres unmarked) [Compound 19] | 0.4 (≈ 0.185 µg/mL) | ≤0.1 | ≤0.1 | 0.2 (≈ 0.0925 µg/mL) | ≤0.1 | ≤0.1 | 0.8 (≈ 0.37 µg/mL) | ≤0.1 | 0.2 (≈ 0.0925 µg/mL) | 0.2 (≈ 0.0925 µg/mL)
